Data: US9988348B1, “Synthesis and antimicrobial use of a trithiocarbonate derivative” (KING SAUD UNIVERSITY, priority 2017, dated 2018)
Marks after values point to notes of the source that are not given here.

Assays:
Fusarium sp. = assay: disk diffusion assay, inhibition zone; type: cell-based; conditions: Fusarium sp.; 10 μg/disk; read-out: Inhibition zone diameter of standard antimicrobial agents
Experimental: (§1) To evaluate antimicrobial activity of the compound 4, synthesized in our laboratory as novel anti-bacterial and anti-fungal agents, the inhibition zone diameter (mm) and the minimal inhibitory concentration were determined according to (Andrews 2001; Hudzicki 2009). The test carried out on several clinical microorganisms included Gram positive bacteria (Staphylococcus aureus ATCC and Streptococcus mutans ATCC 35668), Gram negative bacteria (Escherichia coli ATCC 25922, Salmonella typhimurium ATCC 14028 and Neisseria meningitides ATCC 1302); yeasts (Candid albicans ATCC 60193, Cryptococcus neoformans Wild strain and Candida parapsilosus ATCC 22019) and molds (Aspergillus fumigatus AUMC 8794, Penicillum chrysogenum AUMC 9476 and Fusarium sp.)
(§2) The clinical microorganisms were cultivated at least three times on suitable culture medium and incubating conditions before susceptibility test. The concentration of microbial inoculation suspensions in sterile sodium chloride solution (0.89%) were adjusted to 0.65 at 620 nm by spectrophotometer. […]
(§3) After that, the disks were dried at 25° C. under sterile conditions by safety biological cabinet. A Mueller-Hinton agar (MHA) (Scharlau Microbiogy, Spain) and a potato dextrose agar (PDA) (Scharlau, Spain) were used to perform antibacterial and antifungal test respectively. The media were prepared according to manufacturer's guidelines. To prepare one liter of MHA and one liter of PDA, 21 grams of MHA and 39 grams of PDA were dissolved in one liter of sterile distilled water, followed by sterilization at 121° C. for 15 minutes by an autoclave (HL-321, Taiwan). The sterilized media were poured in sterile plastic Petri dishes at 50° C. The plates were allowed to let the medium solidify at room temperature. 0.1 ml of microbial inoculation suspensions were spread on dried surface of medium and were kept at 25° C. for 5-10 minutes. The compound 4 and standard antimicrobial drugs discs (Table 1) were dispensed on the surface of inoculated media. The tested bacteria and fungi were incubated at 37±1° C. for 19-22 hours and at 25±1 for 48-72 hours respectively. After the incubation, the diameter of inhibition zone (millimeter) resulting from the biological activity of compound were recorded.

[1] = test system: Candid albicans ATCC 60193; assay: disk diffusion assay, inhibition zone; type: cell-based; conditions: Candida albicans, ATCC60193; C. albicans; 10 μg/disk; read-out: Inhibition zone diameter of standard antimicrobial agents
Experimental: as §1, §2, §3

[2] = test system: Aspergillus fumigatus AUMC 8794; assay: disk diffusion assay, inhibition zone; type: cell-based; conditions: Aspergillus fumigatus, AUMC8794; A. fumigatus; 10 μg/disk; read-out: Inhibition zone diameter of standard antimicrobial agents
Experimental: as §1, §2, §3

[3] = test system: Penicillum chrysogenum AUMC 9476; assay: disk diffusion assay, inhibition zone; type: cell-based; conditions: P. chrysoginum; 10 μg/disk; read-out: Inhibition zone diameter of standard antimicrobial agents
Experimental: as §1, §2, §3

[4] = test system: Candida parapsilosus ATCC 22019; assay: disk diffusion assay, inhibition zone; type: cell-based; conditions: C. parasilosus
Experimental: as §1, §2, §3

[5] = test system: Cryptococcus neoformans Wild strain; assay: disk diffusion assay, inhibition zone; type: cell-based; conditions: Cryptococcus neoformans; C. neoformasn; 10 μg/disk; read-out: Inhibition zone diameter of standard antimicrobial agents
Experimental: as §1, §2, §3

C. albicans = assay: in vivo antifungal activity, candidemia in mice infected with C. albicans; parameters: species or system Albino male mice; conditions: C. albicans-infected mice; for daily body weight / % change in daily body weight / Food consumption / Mortality / Water consumption: oral 12 mg/kg then 6 mg/ml
Experimental: To confirm that the water soluble form of the compound 4 has a biological activity as a novel antimicrobial agent, effectiveness of the compound 4 as a drug to treat candidemia in mice was investigated. The experiment was performed in Experimental Animal Care Center (EACC), College of Pharmacy, King Saud University, Riyadh. Fifty Albino male mice, weighing nearly 30±2 gram were used. The mice were arranged in five groups, each including ten mice caged together, given water, and feed ad libitum. Negative control and control group were infected intravenously with 0.2 ml of C. albicans suspension (10^6 CFU/mouse) and 0.2 ml of sterile normal saline (0.89% Nacl) respectively. The group treated with standard drug (fluconazole) was infected intravenously with 0.2 ml of C. albicans suspension (10^6 CFU/mouse) and treated (orally) by 12 mg/kg of fluconazole (loading dose) on the first day followed by 6 mg/ml for 2 weeks. The group treated with the investigated compound 4 was infected intravenously with C. albicans at 10^6 CFU/mouse (0.2 ml) and treated (orally) by 12 mg/kg of the compound 4 (loading dose) on the first day followed by 6 mg/ml for 2 weeks. To study the biological effects of compound 4, a fifth group was designed. In this group the mice were treated intravenously (I. V) with 12 mg/kg of the compound 4 on the first day followed by 6 mg/ml for 2 weeks. All doses of the standard drug and compound 4 were given twice daily.
The effectiveness of the previous treatments on some biological concepts were evaluated. The biological parameters included daily body weight (gm), mortality (%), food consumption (g/day/mouse), water consumption (ml/day/mouse), serum glutamic oxaloacetic transaminase [SGOT(AST) (U/L)], serum glutamic-pyruvic transaminase [SGPT(ALT)(U/L)], alkaline phosphatase (U/L), gamma-glutamyl transferase (GGT) (U/L), bilirubin (mg/dl)], cholesterol (mg/dl), triglycerides (mg/dl), high-density lipoprotein (HDL) (mg/dl), very-low-density lipoprotein (VLDL) (mg/dl), low-density lipoprotein (LDL) (mg/dl), lactate dehydrogenase (LDH) (U/L), glucose (mg/dl), total protein (mg/dl), malondialdehyde (MDA) (nmol/g), nonprotein sulfyhydryl (NP-SH) (nmol/g). Addition hematologic constituents including white blood cells (WBC) (cell/mm^3), red blood cells (RBC) (10^6/mm^3), hemoglobin (HGB) (g/dL), HCT, Platelets (PLT) (10^3/mm^3), mean corpuscular volume (MCV) (fL), mean corpuscular hemoglobin (MCH) (pg), mean corpuscular hemoglobin concentration (MCHC) (g/dL), neutrophils (%), lymphocytes (%), eosinophils (%) and monocytes (%)] were evaluated (Classics Lowry et al. 1951; Utley et al. 1967; Sedlak et al. 1968). SGOT (AST), SGPT (ALT), ALP, GGT, bilirubin LDH and total protein were estimated using Reflotron Plus Analyzer and Roche kits (Roche Diagnostics GmbH, Mannheim Germany) and United diagnostic kits assay. Hematological tests were performed by Mindray BC-2800VET auto Hematology Analyzer.

[6] = blood, oral 12 mg/kg then 6 mg/ml for 2 weeks
[7] = liver tissue, oral 12 mg/kg then 6 mg/ml for 2 weeks
[8] = serum, oral 12 mg/kg then 6 mg/ml for 2 weeks

Structure (SMILES): Clc1ccccc1C(c1ccccc1)(c1ccccc1)n1ccnc1 [Canesten]
- zone of inhibition at 10 µg/disc (Fusarium sp.): 15 mm
- zone of inhibition at 10 µg/disc [1]: 26 mm
- zone of inhibition at 10 µg/disc [2]: 23 mm
- zone of inhibition at 10 µg/disc [3]: 30 mm
- susceptibility of the strain to the standard drug, in words [4]: resistant
- zone of inhibition at 10 µg/disc ([4]; Candida, ATCC22019, 10 μg/disk, read-out: Inhibition zone diameter of standard antimicrobial agents): 0 mm
- zone of inhibition at 10 µg/disc [5]: 25 mm

Structure (SMILES): OC(Cn1cncn1)(Cn1cncn1)c1ccc(F)cc1F [fluconazole, reference compound]
- daily body weight (C. albicans; day 0): 19.70 ± 0.47 gm
- % change in daily body weight (C. albicans; day 1): 0.50%
- Food consumption (C. albicans; day 1): 4.3 g/day/mice
- Mortality (C. albicans; day 1): 0%
- Water consumption (C. albicans; day 1): 4.8 g/day/mice
- daily body weight (C. albicans; day 1): 19.80 ± 0.35 gm
- % change in daily body weight (C. albicans; day 2): 10.65%
- Food consumption (C. albicans; day 2): 4.3 g/day/mice
- Mortality (C. albicans; day 2): 0%
- Water consumption (C. albicans; day 2): 4.8 g/day/mice
- daily body weight (C. albicans; day 2): 21.80 ± 0.24 gm
- % change in daily body weight (C. albicans; day 3): 13.19%
- Food consumption (C. albicans; day 3): 4.5 g/day/mice
- Mortality (C. albicans; day 3): 0%
- Water consumption (C. albicans; day 3): 4.9 g/day/mice
- daily body weight (C. albicans; day 3): 22.30 ± 0.21 gm
- % change in daily body weight (C. albicans; day 4): 13.70%
- Food consumption (C. albicans; day 4): 4.6 g/day/mice
- Mortality (C. albicans; day 4): 0%
- Water consumption (C. albicans; day 4): 5.0 g/day/mice
- daily body weight (C. albicans; day 4): 22.40 ± 0.22 gm
- % change in daily body weight (C. albicans; day 5): 21.31%
- Food consumption (C. albicans; day 5): 4.6 g/day/mice
- Mortality (C. albicans; day 5): 0%
- Water consumption (C. albicans; day 5): 5.2 g/day/mice
- daily body weight (C. albicans; day 5): 23.90 ± 0.31 gm
- % change in daily body weight (C. albicans; day 6): 21.82%
- Food consumption (C. albicans; day 6): 4.7 g/day/mice
- Mortality (C. albicans; day 6): 0%
- Water consumption (C. albicans; day 6): 5.2 g/day/mice
- daily body weight (C. albicans; day 6): 24.00 ± 0.29 gm
- % change in daily body weight (C. albicans; day 7): 22.95%
- Food consumption (C. albicans; day 7): 5.0 g/day/mice
- Mortality (C. albicans; day 7): 10%
- Water consumption (C. albicans; day 7): 5.1 g/day/mice
- daily body weight (C. albicans; day 7): 24.22 ± 0.22 gm
- % change in daily body weight (C. albicans; day 8): 24.08%
- Food consumption (C. albicans; day 8): 5.1 g/day/mice
- Mortality (C. albicans; day 8): 10%
- Water consumption (C. albicans; day 8): 5.2 g/day/mice
- daily body weight (C. albicans; day 8): 24.44 ± 0.24 gm
- % change in daily body weight (C. albicans; day 9): 24.36%
- Food consumption (C. albicans; day 9): 4.7 g/day/mice
- Mortality (C. albicans; day 9): 20%
- Water consumption (C. albicans; day 9): 5.2 g/day/mice
- daily body weight (C. albicans; day 9): 24.50 ± 0.18 gm
- % change in daily body weight (C. albicans; day 10): 26.29%
- Food consumption (C. albicans; day 10): 5.00 g/day/mice
- Mortality (C. albicans; day 10): 20%
- Water consumption (C. albicans; day 10): 5.3 g/day/mice
- daily body weight (C. albicans; day 10): 24.87 ± 0.29 gm
- % change in daily body weight (C. albicans; day 11): 28.17%
- Food consumption (C. albicans; day 11): 5.1 g/day/mice
- Mortality (C. albicans; day 11): 20%
- Water consumption (C. albicans; day 11): 5.3 g/day/mice
- daily body weight (C. albicans; day 11): 25.25 ± 0.25 gm
- % change in daily body weight (C. albicans; day 12): −28.80%
- Food consumption (C. albicans; day 12): 5.62 g/day/mice
- Mortality (C. albicans; day 12): 20%
- Water consumption (C. albicans; day 12): 5.5 g/day/mice
- daily body weight (C. albicans; day 12): 25.37 ± 0.26 gm
- % change in daily body weight (C. albicans; day 13): 31.97%
- Food consumption (C. albicans; day 13): 5.2 g/day/mice
- Mortality (C. albicans; day 13): 30%
- Water consumption (C. albicans; day 13): 5.4 g/day/mice
- daily body weight (C. albicans; day 13): 26.00 ± 0.30 gm
- % change in daily body weight (C. albicans; day 14): 33.43%
- Food consumption (C. albicans; day 14): 5.2 g/day/mice
- Mortality (C. albicans; day 14): 30%
- Water consumption (C. albicans; day 14): 5.4 g/day/mice
- daily body weight (C. albicans; day 14): 26.28 ± 0.28 gm
- % change in daily body weight (C. albicans; day 15): 35.60%
- Food consumption (C. albicans; day 15): 5.5 g/day/mice
- Mortality (C. albicans; day 15): 30%
- Water consumption (C. albicans; day 15): 5.7 g/day/mice
- daily body weight (C. albicans; day 15): 26.71 ± 0.28 gm
- Eosinophils Mean ± SE (C. albicans; [6]): 1.61 ± 0.10%
- HCT Mean ± SE (C. albicans; [6]): 35.05 ± 1.5
- HGB Mean ± SE (C. albicans; [6]): 11.1 ± 0.18 g/dL
- Lymphocytes Mean ± SE (C. albicans; [6]): 6.2 ± 0.1%
- MCH Mean ± SE (C. albicans; [6]): 28.2 ± 0.7 pg
- MCHC Mean ± SE (C. albicans; [6]): 24.3 ± 0.5 g/dL
- MCV Mean ± SE (C. albicans; [6]): 72.04 ± 2.6 fL
- Monocytes Mean ± SE (C. albicans; [6]): 1.06 ± 0.02%
- Neutrophils Mean ± SE (C. albicans; [6]): 25.9 ± 0.5%
- PLT Mean ± SE (C. albicans; [6]): 563.8 ± 17.4 10^3/mm^3
- RBC Mean ± SE (C. albicans; [6]): 7.50 ± 0.23 10^6/mm^3
- WBC Mean ± SE (C. albicans; [6]): 8233.2 ± 83.7 Cell/mm^3
- MDA (C. albicans; [7]): 2.33 ± 0.07***^b nmol/g
- NP-SH (C. albicans; [7]): 4.21 ± 0.18***^b nmol/g
- Total Protein (C. albicans; [7]): 92.72 ± 1.54***^b g/l
- Alkaline phosphatase Mean ± SE (C. albicans; [8]): 321.28 ± 6.91 U/L
- Bilirubin Mean ± SE (C. albicans; [8]): 0.75 ± 0.03 mg/dL
- Cholesterol Mean ± SE (C. albicans; [8]): 134.8 ± 3.6 mg/dL
- GGT Mean ± SE (C. albicans; [8]): 5.60 ± 0.17 U/L
- Glucose level Mean ± SE (C. albicans; [8]): 143.85 ± 2.47***^b mg/dl
- HDL Mean ± SE (C. albicans; [8]): 29.8 ± 0.9 mg/dL
- LDH Mean ± SE (C. albicans; [8]): 184.92 ± 5.08***^b U/L
- LDL Mean ± SE (C. albicans; [8]): 83.9 ± 3.3 mg/dL
- SGOT(AST) Mean ± SE (C. albicans; [8]): 143.28 ± 2.88 U/L
- SGPT(ALT) Mean ± SE (C. albicans; [8]): 50.48 ± 3.17 U/L
- Triglycerides Mean ± SE (C. albicans; [8]): 105.1 ± 2.2 mg/dL
- VLDL Mean ± SE (C. albicans; [8]): 21.0 ± 0.4 mg/dL
